The target in assay [1] is T1, SIRT5 (Homo sapiens, UniProt Q9NXA8).
T1 construct: endogenous in cells; host or cells: HEK293
T1 sequence (Q9NXA8 37-310): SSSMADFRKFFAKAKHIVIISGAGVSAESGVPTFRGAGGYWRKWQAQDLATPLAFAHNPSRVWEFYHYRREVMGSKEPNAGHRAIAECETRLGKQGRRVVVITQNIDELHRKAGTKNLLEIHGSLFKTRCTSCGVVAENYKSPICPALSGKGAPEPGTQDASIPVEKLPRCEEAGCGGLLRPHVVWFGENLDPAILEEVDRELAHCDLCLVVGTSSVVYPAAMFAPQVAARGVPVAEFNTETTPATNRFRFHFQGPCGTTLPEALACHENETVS
Put plainly: Western blot of CPS1Ac in HEK293 cells. It is filed as cell-based. The method, then:
The cellular activity of probes 2A and 2B was also investigated. […] SIRT5 is known to deacetylate and activate carbamoyl phosphate synthetase I (CPS1), which is the enzyme catalyzing the first step of the urea cycle. Cells were treated with either probe 2B or a known SIRT5 inhibitor, suramin, before the acetylation level of CPS1 (CPS1Ac) was examined.
The cell lysate was resolved on a 10% SDS-PAGE gel and transferred to Immobilon PVDF transfer membrane (Millipore, Burlington, MA, USA). The blot was blocked with 5% nonfat milk, probed with primary antibody targeting H3K9Ac (Sigma-Aldrich, St. Louis, MO, USA), H3 (Abcam, Cambridge, MA, USA), acetyllysine or CPS1 (Cell Signaling Technology, Beverly, MA, USA), washed with PBST, followed by incubation with anti-rabbit or anti-mouse HRP conjugated secondary antibody. Then, the signal was detected by SuperSignal West Pico Chemiluminescent substrate (Thermo Fisher Scientific, Rockford, IL, USA).
On the technique in general: Immunoblotting shows a protein as a band on a membrane.

Assay [2] has as its target T2, SIRT5 (Homo sapiens, UniProt Q9NXA8).
T2 construct: SIRT5 (34-302); made in house
T2 sequence (Q9NXA8 34-302): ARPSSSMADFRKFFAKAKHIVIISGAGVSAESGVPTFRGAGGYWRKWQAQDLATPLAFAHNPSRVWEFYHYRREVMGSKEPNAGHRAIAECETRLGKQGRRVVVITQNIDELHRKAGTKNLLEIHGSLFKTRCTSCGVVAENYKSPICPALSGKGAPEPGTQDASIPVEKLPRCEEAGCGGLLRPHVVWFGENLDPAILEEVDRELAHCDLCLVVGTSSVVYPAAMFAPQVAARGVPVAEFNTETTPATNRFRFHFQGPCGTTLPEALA
Nature of the assay: Labeling of SIRT5 in partially purified recombinant sirtuin mixture and peptide competition. It is filed as biochemical. Conditions: 500 μM NAD+, increasing concentrations of probe, 20 min irradiation. From the text:
Probe 2B, being a selective SIRT5 inhibitor, was also selective for SIRT5 in the labeling experiments. […] The on-target effect of probe 2B was further confirmed by the peptide competition analysis. H3K9Suc (Figure 4B), a synthetic peptide that is identical to the N-terminus of histone H3 bearing a succinylated lysine 9 mark, is a known SIRT5 substrate. H3K9Suc was titrated into SIRT5 in the presence of probe 2B.
Figure 4 Labeling of SIRT5 by probe 2B. (A) Dose-dependent labeling of SIRT5 by probe 2B in recombinantly expressed, partially purified sirtuin mixture. SIRT1, SIRT2, SIRT3, SIRT5, and SIRT6 were mixed and incubated with 500 μM NAD^+ and increasing concentrations of 2B. The samples were incubated at 37 °C for 10 min and subjected to UV irradiation for 20 min, and then “click” conjugated to TAMRA-azide; (B) Chemical structure of H3K9Suc; (C) Peptide competition. The labeling of SIRT5 by probe 2B decreased with increasing concentrations of the competitor peptide, H3K9Suc.
A typical labeling experiment was performed as follows: in a 0.7 mL Eppendorf tube, purified recombinant human sirtuin (10 μM) was incubated with NAD^+ (500 μM) and activity-based probe at 37 °C for 10 min. […] Then, destained gel was analyzed with in-gel fluorescence scanning using a Biorad ChemiDoc MP imager (excitation 532 nm, 580 nm cut-off filter and 30 nm band-pass). […]

The target of assay [3] is T3, wild-type SIRT6 (wtSIRT6) (Homo sapiens, UniProt Q8N6T7).
T3 construct: host or cells: E. coli (inferred from b12)
T3 sequence (Q8N6T7 whole entry): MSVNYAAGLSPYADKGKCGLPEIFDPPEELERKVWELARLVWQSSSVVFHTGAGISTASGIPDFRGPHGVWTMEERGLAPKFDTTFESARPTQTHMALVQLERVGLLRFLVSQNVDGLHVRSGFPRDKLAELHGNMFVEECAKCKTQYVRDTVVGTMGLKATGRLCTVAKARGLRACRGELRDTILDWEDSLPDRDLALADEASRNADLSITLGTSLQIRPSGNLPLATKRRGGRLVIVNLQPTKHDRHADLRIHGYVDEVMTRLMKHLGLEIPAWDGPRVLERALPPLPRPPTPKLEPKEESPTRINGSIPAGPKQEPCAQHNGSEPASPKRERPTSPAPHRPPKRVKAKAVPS
Nature of the assay: Labeling of wild-type SIRT6. The format is biochemical. As for the experimental part: (§1) Remarkably, probe 2C was also able to label individual sirtuin isoforms in cell lysates. HEK293 cells overexpressing human SIRT2 were lysed, and the lysate was subjected to the labeling by 10 μM probe 2C.
A typical labeling experiment was performed as follows: in a 0.7 mL Eppendorf tube, purified recombinant human sirtuin (10 μM) was incubated with NAD^+ (500 μM) and activity-based probe at 37 °C for 10 min. The sample was transferred to a clear-bottom 96-well plate, placed on ice, and irradiated at 365 nm with a UV-lamp in a cold room. Subsequently, ingredients of the “click-chemistry” including azide-fluor 545, CuSO4, reducing agent (tris(2-carboxyethyl)phosphine, TCEP) and stabilizing agent (tris[(1-benzyl-1H-1,2,3-triazol-4-yl)methyl]amine, TBTA) were added, and the sample was gently agitated at 250 rpm on a microshaker at room temperature for 30 min. Then, the sample was resolved by SDS-PAGE. To […] the signal to noise ratio, the gel was destained to eliminate non-specific binding of free dyes. This was done in a mixture of methanol/distilled water/acetic acid (v/v/v = 4/5/1) at ambient temperature for 4 h. Then, destained gel was analyzed with in-gel fluorescence scanning using a Biorad ChemiDoc MP imager (excitation 532 nm, 580 nm cut-off filter and 30 nm band-pass). Finally, Coomassie blue staining was applied to provide loading control.

The target in another assay is T4, SIRT2 (Homo sapiens, UniProt Q8IXJ6).
T4 construct: expressed in transfected cells; host or cells: HEK293
T4 sequence (Q8IXJ6 1-389): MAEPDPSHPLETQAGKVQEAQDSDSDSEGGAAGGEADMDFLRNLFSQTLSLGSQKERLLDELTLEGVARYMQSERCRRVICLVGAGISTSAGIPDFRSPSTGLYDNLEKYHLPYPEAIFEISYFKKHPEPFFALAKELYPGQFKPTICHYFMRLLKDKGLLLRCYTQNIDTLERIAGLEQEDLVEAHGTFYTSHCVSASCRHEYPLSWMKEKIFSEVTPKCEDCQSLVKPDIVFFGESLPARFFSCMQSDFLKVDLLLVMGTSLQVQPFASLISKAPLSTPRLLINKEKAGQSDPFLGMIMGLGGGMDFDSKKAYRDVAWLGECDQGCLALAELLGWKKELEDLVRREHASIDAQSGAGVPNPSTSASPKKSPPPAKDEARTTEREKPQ
Nature of the assay: Cell lysate labeling, SIRT2-overexpressing HEK293. The format is biochemical. Conditions: 10 μM probe. The method, then:
as §1
Cells were harvested and lysed with RIPA buffer (Thermo Fisher Scientific, Rockford, IL, USA) supplemented with protease inhibitor cocktail (Thermo Fisher Scientific, Rockford, IL, USA). Protein concentration was determined by Bradford assay. A typical labeling experiment contained 4 to 24 μg of protein, 500 μM NAD^+, and 10 μM probe in 100 mM phosphate buffer pH 7.5. The photoaffinity labeling, “click” conjugation to fluorescent dye and visualization were similar to the protocols for labeling recombinant sirtuins as described above.

For `C#CCCCC1(CCC(=O)N[C@@H](CCCCNC(=S)CCC(=O)O)C(=O)N[C@@H](C)C(=O)N[C@@H](C)C(=O)OC)N=N1` [Probe 2B], the “CPS1Ac level compared to control” value at SIRT5 [1] is on record as “increased CPS1Ac level”. Besides, on SIRT5 [2], the “labeling of SIRT5 in sirtuin mixture” value is “robust labeling of SIRT5 in a concentration-dependent fashion”.
As for `C#CCCCC1(CCC(=O)N[C@@H](CCCCNC(=S)CCCCCCCCCCCCC)C(=O)N[C@@H](C)C(=O)N[C@@H](C)C(=O)OC)N=N1` [Probe 2C], the “labeling of wtSIRT6” value in assay [3] is given as “concentration-dependent labeling of wild-type SIRT6”. Further, the “amount of cell lysate in which labeling was still observed” value at SIRT2 worked out at 4 µg. For the same molecule, at SIRT2 (lysate of HEK293 cells overexpressing human SIRT2), the “labeling of SIRT2 in cell lysate” value is “clean and selective labeling of SIRT2”.
